Measurements published in publication PMC3445454, “Broad and Cross-Clade CD4^+ T-Cell Responses Elicited by a DNA Vaccine Encoding Highly Conserved and Promiscuous HIV-1 M-Group Consensus Peptides” (PLoS ONE, 2012).
Residue numbers refer to the chain shown, from its start. pIC50: −log10 of the molar value. Like-named read-outs stand apart in the source and are kept apart here. Ends that are not written are not given here.

Legend:
Experiment in all cases: biochemical
HLA-DR DRB1*12:01 = HLA-DR DRB1*12:01 (Homo sapiens, UniProt P01903+P01911, A100R/A169T/D57E/D86V/F55L/H45Y/K41T/L162R/M171V/P40S/Q125H/Q178H/Q39Y/Q99D/R42G/S66L/T262R/V114A/V67L/W38E/Y59H/Y61H/Y89S); type: binding; conditions: for IC50: read-out: Binding capacity/IC50 (nM) DRB1*12:01
[1] = molecular target: T1, HLA-DP DPA1*01:03/DPB1*02:01 (Homo sapiens, UniProt P04440+P20036, A65V/A84D/A85E/K98E); type: binding; conditions: for IC50: read-out: Binding capacity/IC50 (nM) DPA1*01:03 DPB1*02:01
T1 sequence (P20036 29-260): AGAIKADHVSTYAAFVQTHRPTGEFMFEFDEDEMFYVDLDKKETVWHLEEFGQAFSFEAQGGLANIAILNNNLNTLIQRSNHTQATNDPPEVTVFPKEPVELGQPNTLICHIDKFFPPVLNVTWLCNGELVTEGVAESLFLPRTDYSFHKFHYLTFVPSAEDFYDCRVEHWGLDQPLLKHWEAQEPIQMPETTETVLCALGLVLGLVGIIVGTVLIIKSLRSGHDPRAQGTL
T1 sequence (P04440 30-258 A65V/A84D/A85E/K98E): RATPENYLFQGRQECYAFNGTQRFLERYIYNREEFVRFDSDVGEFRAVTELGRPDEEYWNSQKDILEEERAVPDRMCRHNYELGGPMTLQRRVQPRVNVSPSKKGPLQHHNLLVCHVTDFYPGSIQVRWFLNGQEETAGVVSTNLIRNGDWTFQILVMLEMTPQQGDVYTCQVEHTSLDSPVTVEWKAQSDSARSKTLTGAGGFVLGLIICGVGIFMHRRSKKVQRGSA

HLA-DR DRB1*15:01 = HLA-DR DRB1*15:01 (Homo sapiens, UniProt P01903+P01911); type: binding; conditions: for IC50: read-out: Binding capacity/IC50 (nM) DRB1*15:01
[2] = molecular target: T2, HLA-DP DPA1*01:03/DPB1*03:01 (Homo sapiens, UniProt P04440+P20036, A65V/A84D/A85E/E86D/F38Y/G113D/G114E/G40L/I94L/L37V/M105V/M116V/P115A/R125K/T199I); type: binding; conditions: for IC50: read-out: Binding capacity/IC50 (nM) DPA1*01:03 DPB1*03:01
T2 sequence (P20036 29-260): T1 sequence (P20036 29-260)
T2 sequence (P04440 30-258 L37V/F38Y/G40L/A65V/A84D/A85E/E86D/I94L/M105V/G113D/G114E/P115A/M116V/R125K/T199I): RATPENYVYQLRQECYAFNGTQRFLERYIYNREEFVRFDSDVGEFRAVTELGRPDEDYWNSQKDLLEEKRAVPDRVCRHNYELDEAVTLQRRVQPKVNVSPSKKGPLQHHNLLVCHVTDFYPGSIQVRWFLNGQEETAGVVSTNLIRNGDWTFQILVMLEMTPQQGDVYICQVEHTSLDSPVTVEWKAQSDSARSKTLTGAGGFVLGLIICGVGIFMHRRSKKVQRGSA

HLA-DR DRB4*01:01 = HLA-DR DRB4*01:01 (Homo sapiens, UniProt P01903+P13762, G164S); type: binding; conditions: for IC50: read-out: Binding capacity/IC50 (nM) DRB4*01:01
[3] = molecular target: T3, HLA-DP DPA1*02:01/DPB1*14:01 (Homo sapiens, UniProt P04440+P20036, A65V/A84D/A85E/E86D/F191V/F38H/G113D/G114E/G40L/I94L/K142R/L158P/L37V/M105V/M116V/M62Q/P115A/Q81R/R125K/T114A/T199I/T259P); type: binding; conditions: for IC50: read-out: Binding capacity/IC50 (nM) DPA1*02:01 DPB1*14:01
T3 sequence (P20036 29-260 A42M/M62Q/Q81R/T114A/K142R/L158P/F191V/T259P): T1 sequence (P20036 29-260) with A14M, M34Q, Q53R, T86A, K114R, L130P, F163V, T231P
T3 sequence (P04440 30-258 L37V/F38H/G40L/A65V/A84D/A85E/E86D/I94L/M105V/G113D/G114E/P115A/M116V/R125K/T199I/R223Q): T2 sequence (P04440 30-258 L37V/F38Y/G40L/A65V/A84D/A85E/E86D/I94L/M105V/G113D/G114E/P115A/M116V/R125K/T199I) with Y9H, R194Q

HLA-DR DRB1*01:01 = HLA-DR DRB1*01:01 (Homo sapiens, UniProt P01903+P01911, A100R/D57E/F55L/F60I/F76Y/I96L/L162R/M171V/P40L/Q125E/R42F/V115G/Y59C); type: binding; conditions: for IC50: read-out: Binding capacity/IC50 (nM) DRB1*01:01
HLA-DR DRB1*13:02 = HLA-DR DRB1*13:02 (Homo sapiens, UniProt P01903+P01911, A100E/A169T/K41T/L162R/M171V/P40S/Q125H/Q178H/Q39Y/Q99D/R42S/S66N/T262R/V115G/W38E/Y61H); type: binding; conditions: for IC50: read-out: Binding capacity/IC50 (nM) DRB1*13:02
HLA-DR DRB3*02:02 = HLA-DR DRB3*02:02 (Homo sapiens, UniProt P01903+P79483, A212P/D57E/F66Y/L67A/R103Q/R218S/R40L/S89Y/T80R/V86D/Y55F/Y59H); type: binding; conditions: for IC50: read-out: Binding capacity/IC50 (nM) DRB3*02:02
HLA-DR DRB1*04:05 = HLA-DR DRB1*04:05 (Homo sapiens, UniProt P01903+P01911, A100R/A169T/D86S/F76Y/I96L/K127E/L162R/M171V/N62H/P40V/Q125Y/R42H/S133A/S149N/S66Y/V115G/V209L/W38E); type: binding; conditions: for IC50: read-out: Binding capacity/IC50 (nM) DRB1*04:05
HLA-DR DRB1*08:02 = HLA-DR DRB1*08:02 (Homo sapiens, UniProt P01903+P01911, A100R/A103L/A169T/F76Y/H45Y/I96F/K41T/L162R/M171V/P40S/Q125H/Q178H/Q39Y/Q99D/R218S/R42G/S66Y/V115G/W38E); type: binding; conditions: for IC50: read-out: Binding capacity/IC50 (nM) DRB1*08:02
[4] = molecular target: HLA-DP DPA1*03:01/DPB1*04:02 (Homo sapiens, UniProt P04440+P20036, A42M/A65V/A84D/A85E/L207M/L97S)
Chain of HLA-DP DPA1*03:01/DPB1*04:02 (P04440 whole entry A65V/A84D/A85E/L207M): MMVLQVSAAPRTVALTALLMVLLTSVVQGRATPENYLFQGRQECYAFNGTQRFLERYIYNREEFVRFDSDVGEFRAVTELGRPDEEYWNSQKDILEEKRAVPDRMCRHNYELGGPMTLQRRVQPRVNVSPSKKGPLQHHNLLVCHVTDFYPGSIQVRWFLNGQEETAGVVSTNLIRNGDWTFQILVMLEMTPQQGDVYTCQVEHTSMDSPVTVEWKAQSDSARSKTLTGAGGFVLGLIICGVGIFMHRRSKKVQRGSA
Chain of HLA-DP DPA1*03:01/DPB1*04:02 (P20036 whole entry A42M/L97S): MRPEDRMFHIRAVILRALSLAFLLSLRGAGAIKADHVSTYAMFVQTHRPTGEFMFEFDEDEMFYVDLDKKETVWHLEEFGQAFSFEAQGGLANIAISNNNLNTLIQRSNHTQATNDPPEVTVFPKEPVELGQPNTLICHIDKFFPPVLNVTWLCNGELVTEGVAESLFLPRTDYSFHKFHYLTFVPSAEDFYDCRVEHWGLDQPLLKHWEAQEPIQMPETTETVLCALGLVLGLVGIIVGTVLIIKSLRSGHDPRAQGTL

Row | Compound | IC50 (HLA-DR DRB1*12:01) | pIC50 (HLA-DR DRB1*15:01) | IC50 [2] | IC50 (HLA-DR DRB4*01:01) | IC50 [3] | IC50 (HLA-DR DRB1*01:01) | IC50 (HLA-DR DRB1*13:02) | IC50 (HLA-DR DRB1*04:05) | IC50 (HLA-DR DRB1*08:02) | pIC50 [4] | pIC50 (HLA-DR DRB1*12:01) | IC50 [1] | IC50 (HLA-DR DRB1*15:01) | pIC50 (HLA-DR DRB1*01:01) | pIC50 (HLA-DR DRB1*13:02) | IC50 (HLA-DR DRB3*02:02) | pIC50 (HLA-DR DRB1*04:05) | pIC50 (HLA-DR DRB1*08:02) | pIC50 [2] | pIC50 [3] | also measured
1 | CC[C@H](C)[C@H](NC(=O)[C@H](CCCCN)NC(=O)[C@@H](NC(=O)[C@@H](NC(=O)[C@@H](N)CCC(N)=O)[C@@H](C)CC)[C@@H](C)O)C(=O)N[C@@H](CCC(N)=O)C(=O)N[C@@H](CC(N)=O)C(=O)N[C@@H](Cc1ccccc1)C(=O)N[C@@H](CCCNC(=N)N)C(=O)N[C@H](C(=O)N[C@@H](Cc1ccc(O)cc1)C(=O)N[C@@H](Cc1ccc(O)cc1)C(=O)N[C@@H](CCCNC(=N)N)C(=O)N[C@@H](CC(=O)O)C(=O)N[C@@H](CO)C(=O)N[C@@H](CCCNC(=N)N)C(=O)N[C@@H](CC(=O)O)C(=O)N1CCC[C@H]1C(=O)N[C@H](C(=O)N[C@@H](Cc1c[nH]c2ccccc12)C(N)=O)[C@@H](C)CC)C(C)C [integrase(216-235)] | 6.6 nM | 8.28 | 83 nM | 2080 nM | 145 nM | 0.7 nM | 1930 nM | 179 nM | 8.8 nM | 7.05 |  |  |  |  |  |  |  |  |  |  | pIC50 [1]: 6.51; pIC50 (HLA-DR DRB3*02:02): 6.38
2 | CC[C@H](C)[C@H](NC(=O)[C@H](C)NC(=O)[C@H](CCCCN)NC(=O)[C@H](CCCCN)NC(=O)CNC(=O)[C@H](CS)NC(=O)[C@@H](NC(=O)[C@H](CCC(=O)O)NC(=O)[C@@H](NC(=O)[C@H](CC(C)C)NC(=O)[C@@H](NC(=O)[C@H](CCC(N)=O)NC(=O)[C@H](CC(=O)O)NC(=O)[C@H](Cc1ccc(O)cc1)NC(=O)[C@H](CCC(N)=O)NC(=O)[C@H](CCCNC(=N)N)NC(=O)[C@@H](NC(=O)[C@H](CCCCN)NC(=O)[C@@H](NC(=O)[C@@H](N)Cc1ccccc1)[C@@H](C)CC)C(C)C)[C@@H](C)CC)[C@@H](C)CC)[C@@H](C)CC)C(=O)NCC(=O)N[C@H](C(=O)N[C@H](C(N)=O)C(C)C)[C@@H](C)O [protease(53-75)] |  |  | 9.4 nM | 302 nM | 1250 nM |  |  |  |  | 6.47 | 7.11 | 41 nM | 111 nM | 7.54 | 5.39 | 9690 nM | 6.55 | 6.49 |  |  | 
3 | CC[C@H](C)[C@H](NC(=O)[C@H](C)NC(=O)[C@@H](N)CCC(=O)O)C(=O)N[C@H](C(=O)N[C@@H](CCCNC(=N)N)C(=O)N[C@H](C(=O)N[C@@H](CC(C)C)C(=O)N[C@@H](CCC(N)=O)C(=O)N[C@@H](CCC(N)=O)C(=O)N[C@@H](CC(C)C)C(=O)N[C@@H](CC(C)C)C(=O)N[C@@H](Cc1ccccc1)C(=O)N[C@H](C(=O)N[C@@H](Cc1c[nH]cn1)C(=O)N[C@@H](Cc1ccccc1)C(=O)N[C@@H](CCCNC(=N)N)C(=O)N[C@H](C(=O)NCC(=O)N[C@@H](CS)C(=O)N[C@@H](CCC(N)=O)C(=O)N[C@@H](Cc1c[nH]cn1)C(=O)N[C@@H](CO)C(=O)N[C@@H](CCCNC(=N)N)C(N)=O)[C@@H](C)CC)[C@@H](C)CC)[C@@H](C)CC)[C@@H](C)CC [vpr(58-80)] |  | 6.83 |  |  |  |  |  |  |  | 7.02 | 6.07 | 717 nM |  | 6.52 | 5.30 | 4090 nM | 6.53 | 7.21 | 6.46 | 5.45 | pIC50 (HLA-DR DRB4*01:01): 6.32
4 | IRYPLTFGWCFKLVPVDPREVEEA-NH2 [nef(133-156)] | 4430 nM | 6.14 | 5360 nM | 1640 nM | 15900 nM | 315 nM | 4290 nM | 398 nM | 2160 nM | 6.17 |  | 119 nM |  |  |  | > 30000 nM |  |  |  |  | 
5 | SEELRSLYNTVATLYCVHQ-NH2 [p17(72-90)] | 1680 nM |  |  | 1100 nM |  | 20 nM | 1050 nM | 421 nM | 73 nM | 7.08 |  | 67 nM | 143 nM |  |  | 6290 nM |  |  | 5.76 | 5.01 | 
6 | VGSLQYLALTALITPKK-NH2 [vif(142-158)] |  |  |  |  |  |  |  |  |  | 8.82 | 5.78 | 76 nM | 3.8 nM | 9.46 | 8.15 |  | 8.64 | 7.60 | 7.13 | 7.15 | pIC50 (HLA-DR DRB4*01:01): 7.11; pIC50 (HLA-DR DRB3*02:02): 6.24
